Test system: LXRα and/or LXRβ
Experiment: Co-transfection assay (LXRE luciferase reporter, CV-1 cells)
Assay type: cell-based, human
Conditions: tested as described in Example 33; IC50 or EC50 for LXRα and/or LXRβ, isoform not specified; read-out: activity (IC50 or EC50 for LXR)
How it was run: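 Luciferase signal measures LXR-RXR transcriptional activation in transiently transfected CV-1 cells carrying human LXRα or LXRβ, RXRα and a single-copy LXRE reporter. Cells were exposed to compound for 20 h at 37 °C with at most 1% DMSO, using 10 μM final for screening. Potency was derived from 4-parameter fits of 8-point, half-log dose curves averaged over ≥3 runs, and efficacy was expressed as % of a reference agonist.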

SMILES | IC50 or EC50 (potency, activation or inhibition) [µM]
CC(C)(O)c1cn(-c2ccc(-c3ccc(C(C)(C)O)c(S(C)(=O)=O)c3)cc2Cl)c(-c2ccccc2Cl)n1 [Example 162, 2-(3′-chloro-4′-(2-(2-chlorophenyl)-4-(2-hydroxypropan-2-yl)-1H-imidazol-1-yl)-3-(methylsulfonyl)biphenyl-4-yl)propan-2-ol] | < 1
CC(C)(O)c1cn(-c2ccc(-c3ccc(C(C)(C)O)c(S(C)(=O)=O)c3)cc2Cl)c(-c2ccccc2C(F)(F)F)n1 [Example 163, 2-(1-(3-chloro-4′-(2-hydroxypropan-2-yl)-3′-(methylsulfonyl)biphenyl-4-yl)-2-(2-(trifluoromethyl)phenyl)-1H-imidazol-4-yl)propan-2-ol] | < 1
CC(C)(O)c1cn(-c2ccc(-c3ccc(C(C)(C)O)c(S(C)(=O)=O)c3)cc2Cl)c(-c2c(F)cccc2Cl)n1 [Example 164, 2-(3′-chloro-4′-(2-(2-chloro-6-fluorophenyl)-4-(2-hydroxypropan-2-yl)-1H-imidazol-1-yl)-3-(methyl-sulfonyl)biphenyl-4-yl)propan-2-ol] | 1 to 10
CCOC(=O)c1ccc(-c2ccc(-n3cc(C(C)(C)O)nc3-c3c(F)cccc3Cl)c(Cl)c2)cc1S(C)(=O)=O [Example 165, ethyl 3′-chloro-4′-(2-(2-chloro-6-fluorophenyl)-4-(2-hydroxypropan-2-yl)-1H-imidazol-1-yl)-3-(methyl-sulfonyl)biphenyl-4-carboxylate] | 1 to 10
Cc1cc(-c2cccc(S(C)(=O)=O)c2)cc(Cl)c1-n1cc(C(C)(C)O)nc1-c1ccccc1Cl [Example 168, 2-(1-(3-chloro-5-methyl-3′-(methyl-sulfonyl)biphenyl-4-yl)-2-(2-chlorophenyl)-1H-imidazol-4-yl)propan-2-ol] | 1 to 10
CCS(=O)(=O)c1cccc(-c2cc(C)c(-n3cc(C(C)(C)O)nc3-c3ccccc3Cl)c(Cl)c2)c1 [Example 169, 2-(1-(3-chloro-3′-(ethylsulfonyl)-5-methylbiphenyl-4-yl)-2-(2-chlorophenyl)-1H-imidazol-4-yl)propan-2-ol] | < 1
CCc1cc(-c2cccc(S(C)(=O)=O)c2)ccc1-n1cc(C(C)(C)O)nc1-c1ccccc1Cl [Example 170, 2-(2-(2-chlorophenyl)-1-(3-ethyl-3′-(methylsulfonyl)biphenyl-4-yl)-1H-imidazol-4-yl)propan-2-ol] | < 1
Cc1cc(-c2ccc(CO)c(S(C)(=O)=O)c2)ccc1-n1cc(C(C)(C)O)nc1-c1ccccc1C(F)(F)F [Example 171] | < 1
Cc1cc(-c2ccc(CO)c(S(C)(=O)=O)c2)ccc1-n1cc(C(C)(C)O)nc1-c1c(F)cccc1Cl [Example 172, 2-(2-(2-chloro-6-fluorophenyl)-1-(4′-(hydroxymethyl)-3-methyl-3′-(methylsulfonyl)biphenyl-4-yl)-1H-imidazol-4-yl)propan-2-ol] | < 1
Cc1cc(-c2ccc(CO)c(S(C)(=O)=O)c2)ccc1-n1cc(C(C)(C)O)nc1-c1cccc(F)c1Cl [Example 173, 2-(2-(2-chloro-3-fluorophenyl)-1-(4′-(hydroxymethyl)-3-methyl-3′-(methylsulfonyl)biphenyl-4-yl)-1H-imidazol-4-yl)propan-2-ol] | < 1
Cc1cc(-c2ccc(CO)c(S(C)(=O)=O)c2)ccc1-n1cc(C(C)(C)O)nc1-c1c(Cl)cccc1Cl [Example 174, 2-(2-(2,6-dichlorophenyl)-1-(4′-(hydroxymethyl)-3-methyl-3′-(methylsulfonyl)biphenyl-4-yl)-1H-imidazol-4-yl)propan-2-ol] | < 1
Cc1cc(-c2ccc(CO)c(S(C)(=O)=O)c2)ccc1-n1cc(C(C)(C)O)nc1-c1cccc(Cl)c1C [Example 175, 2-(2-(3-chloro-2-methylphenyl)-1-(4′-(hydroxymethyl)-3-methyl-3′-(methylsulfonyl)biphenyl-4-yl)-1H-imidazol-4-yl)propan-2-ol] | < 1
Cc1cc(-c2ccc(CO)c(S(C)(=O)=O)c2)ccc1-n1cc(C(C)(C)O)nc1-c1cccc(Cl)c1Cl [Example 176, 2-(2-(2,3-dichlorophenyl)-1-(4′-(hydroxymethyl)-3-methyl-3′-(methylsulfonyl)biphenyl-4-yl)-1H-imidazol-4-yl)propan-2-ol] | < 1
Cc1cc(-c2ccc(CO)c(S(C)(=O)=O)c2)ccc1-n1cc(C(C)(C)O)nc1-c1c(C)cccc1Cl [Example 177] | < 1
Cc1cc(-c2ccc(CO)c(S(C)(=O)=O)c2)ccc1-n1cc(C(C)(C)O)nc1-c1c(F)cccc1F [Example 178, 2-(2-(2,6-difluorophenyl)-1-(4′-(hydroxymethyl)-3-methyl-3′-(methylsulfonyl)biphenyl-4-yl)-1H-imidazol-4-yl)propan-2-ol] | < 1

More lines, now with the values ahead:

IC50 or EC50 (potency, activation or inhibition) [µM] | SMILES
< 1 | Cc1cc(-c2cccc(S(C)(=O)=O)c2)ccc1-n1cc(C(C)(C)O)nc1-c1cccc(Cl)c1Cl [Example 179, 2-(2-(2,3-dichlorophenyl)-1-(3-methyl-3′-(methylsulfonyl)biphenyl-4-yl)-1H-imidazol-4-yl)propan-2-ol]
< 1 | CCS(=O)(=O)c1cccc(-c2ccc(-n3cc(C(C)(C)O)nc3-c3cccc(Cl)c3Cl)c(C)c2)c1 [Example 180, 2-(2-(2,3-dichlorophenyl)-1-(3′-(ethylsulfonyl)-3-methylbiphenyl-4-yl)-1H-imidazol-4-yl)propan-2-ol]
< 1 | Cc1cc(-c2cccc(S(C)(=O)=O)c2)ccc1-n1cc(C(C)(C)O)nc1-c1c(Cl)cccc1Cl [Example 181, 2-(2-(2,6-dichlorophenyl)-1-(3-methyl-3′-(methylsulfonyl)biphenyl-4-yl)-1H-imidazol-4-yl)propan-2-ol]
< 1 | CCS(=O)(=O)c1cccc(-c2ccc(-n3cc(C(C)(C)O)nc3-c3c(Cl)cccc3Cl)c(C)c2)c1 [Example 182, 2-(2-(2,6-dichlorophenyl)-1-(3′-(ethylsulfonyl)-3-methylbiphenyl-4-yl)-1H-imidazol-4-yl)propan-2-ol]
< 1 | Cc1cc(-c2cccc(S(C)(=O)=O)c2)ccc1-n1cc(C(C)(C)O)nc1-c1ccccc1C(F)(F)F [Example 183, 2-(1-(3-methyl-3′-(methyl-sulfonyl)biphenyl-4-yl)-2-(2-(trifluoromethyl)phenyl)-1H-imidazol-4-yl)propan-2-ol]
< 1 | CCS(=O)(=O)c1cccc(-c2ccc(-n3cc(C(C)(C)O)nc3-c3ccccc3C(F)(F)F)c(C)c2)c1 [Example 184, 2-(1-(3′-(ethylsulfonyl)-3-methyl-biphenyl-4-yl)-2-(2-(trifluoro-methyl)phenyl)-1H-imidazol-4-yl)propan-2-ol]
< 1 | Cc1cc(-c2cccc(S(C)(=O)=O)c2)ccc1-n1cc(C(C)(C)O)nc1-c1cccc(F)c1Cl [Example 185, 2-(2-(2-chloro-3-fluorophenyl)-1-(3-methyl-3′-(methylsulfonyl)biphenyl-4-yl)-1H-imidazol-4-yl)propan-2-ol]
< 1 | CCS(=O)(=O)c1cccc(-c2ccc(-n3cc(C(C)(C)O)nc3-c3cccc(F)c3Cl)c(C)c2)c1 [Example 186, 2-(2-(2-chloro-3-fluorophenyl)-1-(3′-(ethylsulfonyl)-3-methylbiphenyl-4-yl)-1H-imidazol-4-yl)propan-2-ol]
< 1 | Cc1cc(-c2cccc(S(C)(=O)=O)c2)ccc1-n1cc(C(C)(C)O)nc1-c1c(F)cccc1Cl [Example 187, 2-(2-(2-chloro-6-fluorophenyl)-1-(3-methyl-3′-(methylsulfonyl)biphenyl-4-yl)-1H-imidazol-4-yl)propan-2-ol]
< 1 | CCS(=O)(=O)c1cccc(-c2ccc(-n3cc(C(C)(C)O)nc3-c3c(F)cccc3Cl)c(C)c2)c1 [Example 188, 2-(2-(2-chloro-6-fluorophenyl)-1-(3′-(ethylsulfonyl)-3-methylbiphenyl-4-yl)-1H-imidazol-4-yl)propan-2-ol]
< 1 | Cc1cc(-c2cccc(S(C)(=O)=O)c2)ccc1-n1cc(C(C)(C)O)nc1-c1cccc(Cl)c1C [Example 189, 2-(2-(3-chloro-2-methylphenyl)-1-(3-methyl-3′-(methylsulfonyl)biphenyl-4-yl)-1H-imidazol-4-yl)propan-2-ol]
< 1 | CCS(=O)(=O)c1cccc(-c2ccc(-n3cc(C(C)(C)O)nc3-c3cccc(Cl)c3C)c(C)c2)c1 [Example 190, 2-(2-(3-chloro-2-methylphenyl)-1-(3′-(ethylsulfonyl)-3-methylbiphenyl-4-yl)-1H-imidazol-4-yl)propan-2-ol]
< 1 | Cc1cc(-c2cccc(S(C)(=O)=O)c2)ccc1-n1cc(C(C)(C)O)nc1-c1c(C)cccc1Cl [Example 191, 2-(2-(2-chloro-6-methylphenyl)-1-(3-methyl-3′-(methylsulfonyl)biphenyl-4-yl)-1H-imidazol-4-yl)propan-2-ol]
< 1 | CCS(=O)(=O)c1cccc(-c2ccc(-n3cc(C(C)(C)O)nc3-c3c(C)cccc3Cl)c(C)c2)c1 [Example 192, 2-(2-(2-chloro-6-methylphenyl)-1-(3′-(ethylsulfonyl)-3-methylbiphenyl-4-yl)-1H-imidazol-4-yl)propan-2-ol]
< 1 | Cc1cc(-c2cccc(S(C)(=O)=O)c2)ccc1-n1cc(C(C)(C)O)nc1-c1c(F)cccc1F [Example 193, 2-(2-(2,6-difluorophenyl)-1-(3-methyl-3′-(methylsulfonyl)biphenyl-4-yl)-1H-imidazol-4-yl)propan-2-ol]

From patent publication US9000022B2 (Exelixis Patent Company LLC, priority 2005, dated 2015)
